Test results published in patent US11976083B2, “Inhibitors of peptidylarginine deiminases” (Gilead Sciences, Inc., priority 2020, dated 2024).

Each compound was assayed against T1, human PAD4 (Homo sapiens, UniProt Q9UM07) (assay: In vitro PAD4 BAEE biochemical assay). Conditions: BAEE substrate 3 mM, 5 nM PAD4, 2 mM calcium chloride; geometric mean of multiple experiments.
T1 construct: human PAD4 (NM_012387), A2-P663, was PCR amplified; His-SUMO (N, cleaved yes); made in house; host or cells: E. coli BL21(DE3)
T1 sequence (Q9UM07 2-663): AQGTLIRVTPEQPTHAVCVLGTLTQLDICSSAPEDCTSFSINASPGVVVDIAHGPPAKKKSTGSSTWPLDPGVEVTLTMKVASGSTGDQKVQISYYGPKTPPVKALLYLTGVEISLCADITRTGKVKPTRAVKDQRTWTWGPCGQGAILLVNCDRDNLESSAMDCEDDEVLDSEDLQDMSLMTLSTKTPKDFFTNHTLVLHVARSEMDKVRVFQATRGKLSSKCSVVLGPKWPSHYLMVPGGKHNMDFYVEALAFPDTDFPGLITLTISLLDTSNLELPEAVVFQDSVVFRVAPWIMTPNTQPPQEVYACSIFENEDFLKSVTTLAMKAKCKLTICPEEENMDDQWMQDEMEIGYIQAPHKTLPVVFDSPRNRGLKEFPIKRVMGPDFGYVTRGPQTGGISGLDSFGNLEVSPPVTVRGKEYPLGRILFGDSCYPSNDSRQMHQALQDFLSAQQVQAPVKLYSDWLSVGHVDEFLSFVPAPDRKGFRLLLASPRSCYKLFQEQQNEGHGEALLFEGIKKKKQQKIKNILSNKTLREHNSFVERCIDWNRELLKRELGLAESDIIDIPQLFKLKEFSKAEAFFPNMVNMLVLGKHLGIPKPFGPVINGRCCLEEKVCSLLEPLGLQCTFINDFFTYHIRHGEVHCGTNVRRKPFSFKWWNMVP
Method in brief: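 Recombinant PAD4 (5 nM final) with 2 mM CaCl2 was preincubated with compound for 30 min at 25 °C in MOPS pH 7.6 buffer with DTT, then reacted with 3 mM BAEE for 2 h at 25 °C. Released ammonia was detected fluorimetrically with o-phthalaldehyde/DTT; IC50 from four-parameter fit, geometric mean of experiments.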
Work on `C[C@H]1NC(=O)[C@@H]2C[C@@]2(F)CCCCCn2c(-c3nc4cc(C(=O)N5C[C@H](N)[C@@H]6CC[C@H]5C6)cc(F)c4n3C3CC3)cc3ccc1nc32` [Example 450, (2~{R},5~{S},7~{S})-14-[5-[(1~{S},4~{R},5~{R})-4-amino-2-azabicyclo[3.2.1]octane-2-carbonyl]-1-cyclopropyl-7-fluoro-benzimidazol-2-yl]-7-fluoro-2-methyl-3,13,19-triazatetracyclo[11.5.2.0^{5,7}.0^{16,20}] icosa-1(19),14,16(20),17-tetraen-4-one] yielded an IC50 of 21 nM.
`COc1cc(C(=O)N2C[C@H](N)[C@@H]3CC[C@H]2C3)cc2nc(-c3cc4ccc5nc4n3CCCCC[C@]3(F)C[C@H]3C(=O)N[C@@H]5C)n(C)c12` [Example 451, (2~{R},5~{S},7~{S})-14-[5-[(1~{S},4~{R},5~{R})-4-amino-2-azabicyclo[3.2.1]octane-2-carbonyl]-7-methoxy-1-methyl-benzimidazol-2-yl]-7-fluoro-2-methyl-3,13,19-triazatetracyclo[11.5.2.0^{5,7}.0^{16,20}] icosa-1(19),14,16(20),17-tetraen-4-one] gave an IC50 of 19 nM.
In the case of `C[C@H]1NC(=O)c2ccc(Cl)nc2CCCCCn2c(-c3nc4cc(C(=O)N5C[C@H](N)[C@@H]6CC[C@H]5C6)cc(F)c4n3[C@@H]3C[C@@H]3F)cc3ccc1nc32` [Example 452, (2~{R})-17-[(1~{R})-5-[(1~{S},4~{R},5~{R})-4-amino-2-azabicyclo[3.2.1]octane-2-carbonyl]-7-fluoro-1-[(2~{S})-2-fluorocyclopropyl]benzimidazol-2-yl]-8-chloro-2-methyl-3,9,16,22-tetrazatetracyclo[14.5.2.0^{5,10).0^{19,23}] tricosa-1(22),5(10),6,8,17,19(23),20-heptaen-4-one], the IC50 is reported as 37 nM.
In the case of `C[C@H]1NC(=O)[C@@H]2C[C@H]2CCCC(F)(F)Cn2c(-c3nc4cc(C(=O)N5C[C@H](N)[C@@H]6CC[C@H]5C6)cc(F)c4n3[C@@H]3C[C@H]3C(F)F)cc3ccc1nc32` [Example 454, (2~{R},5~{R},7~{R})-14-[5-[(1~{S),4~{R},5~{R})-4-amino-2-azabicycło[3.2.1]octane-2-carbonyl]-1-[(1~{R},2~{R})-2-(difluoromethyl)cyclopropyl]-7-fluoro-benzimidazol-2-yl]-11,11-difluoro-2-methyl-3,13,19-triazatetracyclo[11.5.2.0^{5,7}.0^{16,20}] icosa-1(19),14,16(20),17-tetraen-4-one], the IC50 is reported as 31 nM.
Work on `C[C@H]1NC(=O)[C@@H]2C[C@H]2CCCC(F)(F)Cn2c(-c3nc4cc(C(=O)N5C[C@H](N)[C@@H]6CC[C@H]5C6)c(F)cc4n3C3CC3)cc3ccc1nc32` [Example 455, (2~{R},5~{R},7~{R})-14-[5-[(1~{S},4~{R},5~{R})-4-amino-2-azabicyclo[3.2.1]octane-2-carbonyl]-1-cyclopropyl-6-fluoro-benzimidazol-2-yl]-11,11-difluoro-2-methyl-3,13,19-triazatetracyclo[11.5.2.0^{5,7}.0^{16,20}] icosa-1(19),14,16(20),17-tetraen-4-one] yielded an IC50 of 36 nM.
`C[C@H]1NC(=O)c2ccc(Cl)nc2CCCCCn2c(-c3nc4cc(C(=O)N5C[C@H](N)[C@@H]6CC[C@H]5C6)c(F)c(F)c4n3C3CC3)cc3ccc1nc32` [Example 456, (2~{R})-17-[5-[(1~{S},4~{R},5~{R})-4-amino-2-azabicyclo[3.2.1]octane-2-carbonyl]-1-cyclopropyl-6,7-difluoro-benzimidazol-2-yl]-8-chloro-2-methyl-3,9,16,22-tetrazatetracyclo[14.5.2.0^{5,10}.0^{19,23}] tricosa-1(22),5(10),6,8,17,19(23),20-heptaen-4-one] gave an IC50 of 57 nM.
With `C[C@H]1NC(=O)c2c(ncc3ccccc23)CCCCCn2c(-c3nc4cc(C(=O)N5C[C@H](N)[C@@H]6CC[C@H]5C6)cc(F)c4n3C3CC3)cc3ccc1nc32` [Example 457, (2~{R})-21-[5-[(1~{S),4~{R},5~{R})-4-amino-2-azabicyclo[3.2.1]octane-2-carbonyl]-1-cyclopropyl-7-fluoro-benzimidazol-2-yl]-2-methyl-3,13,20,26-tetrazapentacyclo[18.5.2.0^{5,14}.0^ {6,11}.0^{23,27}]heptacosa-1(26),5(14),6(11),7,9,12,21,23(27),24-nonaen-4-one] the IC50 was 38 nM.
Compound `C[C@H]1NC(=O)[C@@H]2C[C@H]2CCCCCn2c(-c3nc4cc(C(=O)N5C[C@H](N)[C@@H]6CC[C@H]5C6)cnc4n3C3CC3)cc3ccc1nc32` [Example 458, (2~{R},5~{R},7~{R})-14-[6-[(1~{S),4~{R},5~{R})-4-amino-2-azabicyclo[3.2.1]octane-2-carbonyl]-3-cyclopropyl-imidazo[4,5-b]pyridin-2-yl]-2-methyl-3,13,19-triazatetracyclo[11.5.2.0^{5,7}.0^{16,20}] icosa-1(19),14,16(20),17-tetraen-4-one] has an IC50 of 23 nM.
Work on `COc1cc(C(=O)N2C[C@H](N)[C@@H]3CC[C@H]2C3)cc2nc(-c3cc4ccc5nc4n3CC(F)(F)CCCC[C@](C)(C(F)(F)F)C(=O)N[C@@H]5C)n(C)c12` [Example 459, (8~{S},11~{R})-17-[5-[(1~{S},4~{R},5~{R})-4-amino-2-azabicyclo[3.2.1]octane-2-carbonyl]-7-methoxy-1-methyl-benzimidazol-2-yl]-3,3-difluoro-8,11-dimethyl-8-(trifluoromethyl)-1,10,19-triazatricyclo[10.5.2.0^{15,18}]nonadeca-12(19),13,15(18),16-tetraen-9-one] yielded an IC50 of 130 nM.
`COc1cc(C(=O)N2C[C@H](N)[C@@H]3CC[C@H]2C3)cc2nc(-c3cc4ccc5nc4n3CC(F)(F)CCCOC(C)(C)C(=O)N[C@@H]5C)n(C)c12` [Example 460, (11~{R})-17-[5-[(1~{S},4~{R},5~{R})-4-amino-2-azabicyclo[3.2.1]octane-2-carbonyl]-7-methoxy-1-methyl-benzimidazol-2-yl]-3,3-difluoro-8,8,11-trimethyl-7-oxa-1,10,19-triazatricyclo[10.5.2.0^{15,18}]nonadeca-12(19),13,15(18),16-tetraen-9-one] showed an IC50 of 71 nM.
In the case of `COc1cc(C(=O)N2C[C@H](N)[C@@H]3CC[C@H]2C3)cc2nc(-c3cc4ccc5nc4n3CCCCCc3cc4ccccc4nc3C(=O)N[C@@H]5C)n(C)c12` [Example 461, (2~{R})-21-[5-[(1~{S},4~{R},5~{R})-4-amino-2-azabicyclo[3.2.1]octane-2-carbonyl]-7-methoxy-1-methyl-benzimidazol-2-yl]-2-methyl-3,6,20,26-tetrazapentacyclo[18.5.2.0^ {5,14}.0^{7,12}.0^ {23,27}]heptacosa-1(26),5(14),6,8,10,12,21,23(27),24-nonaen-4-one], the IC50 is reported as 51 nM.
In the case of `C[C@H]1NC(=O)C(C)(C)CCCCCCn2c(-c3nc4cc(C(=O)N5C[C@H](N)[C@@H]6CC[C@H]5C6)cc(F)c4n3C3CC3)cc3ccc1cc32` [Example 462, (11~{R})-17-[5-[(1~{S},4~{R},5~{R})-4-amino-2-azabicyclo[3.2.1]octane-2-carbonyl]-1-cyclopropyl-7-fluoro-benzimidazol-2-yl]-8,8,11-trimethyl-1,10-diazatricyclo[10.5.2.0^{15,18}]nonadeca-12(19),13,15(18),16-tetraen-9-one], the IC50 is reported as 31 nM.
In the case of `COc1cc(C(=O)N2C[C@H](N)[C@@H]3CC[C@H]2C3)cc2nc(-c3cc4cc(F)c5cc4n3CC(F)(F)CCC[C@@H]3C[C@H]3C(=O)N[C@@H]5C)n(C)c12` [Example 463, (2~{R},5~{R},7~{R})-14-[5-[(1~{S},4~{R},5~{R})-4-amino-2-azabicyclo[3.2.1]octane-2-carbonyl]-7-methoxy-1-methyl-benzimidazol-2-yl]-11,11,18-trifluoro-2-methyl-3,13-diazatetracyclo[11.5.2.0^{5,7}.0^{16,20}] icosa-1(19),14,16(20),17-tetraen-4-one], the IC50 is reported as 29 nM.
`C[C@H]1NC(=O)[C@@H]2C[C@H]2CCCC(F)(F)Cn2c(-c3nc4cc(C(=O)N5C[C@H](N)[C@@H]6CC[C@H]5C6)cc(F)c4n3C3CC3)cc3cc(F)c1cc32` [Example 464, (2~{R},5~{R},7~{R})-14-[5-[(1~{S},4~{R},5~{R})-4-amino-2-azabicyclo[3.2.1]octane-2-carbonyl]-1-cyclopropyl-7-fluoro-benzimidazol-2-yl]-11,11,18-trifluoro-2-methyl-3,13-diazatetracyclo[11.5.2.0^{5,7}.0^{16,20}] icosa-1(19),14,16(20),17-tetraen-4-one] showed an IC50 of 28 nM.
Compound `COc1cc(C(=O)N2C[C@H](N)[C@@H]3CC[C@H]2C3)cc2nc(-c3cc4ccc5cc4n3CCCCCCC(C)(C)C(=O)N[C@@H]5C)n(C)c12` [Example 465, (11~{R})-17-[5-[(1~{S},4~{R},5~{R})-4-amino-2-azabicyclo[3.2.1]octane-2-carbonyl]-7-methoxy-1-methyl-benzimidazol-2-yl]-8,8,11-trimethyl-1,10-diazatricyclo[10.5.2.0^{15,18}]nonadeca-12(19),13,15(18),16-tetraen-9-one] has an IC50 of 23 nM.
In the case of `C[C@H]1NC(=O)[C@@H]2C[C@H]2CCCC(F)(F)Cn2c(-c3nc4cc(C(=O)N5C[C@H](N)[C@@H]6CC[C@H]5C6)c(F)c(F)c4n3C3CC3)cc3ccc1nc32` [Example 466, (2~{R},5~{R},7~{R})-14-[5-[(1~{S),4~{R},5~{R})-4-amino-2-azabicyclo[3.2.1]octane-2-carbonyl]-1-cyclopropyl-6,7-difluoro-benzimidazol-2-yl]-11,11-difluoro-2-methyl-3,13,19-triazatetracyclo[11.5.2.0^{5,7}.0^{16,20}] icosa-1(19),14,16(20),17-tetraen-4-one], the IC50 is reported as 55 nM.
